Active and inactive are the calls of the source.
Tests used:
[1] = insulin promoter down-regulators in MIN6 cells, imaging, high-content screening, mouse beta cells (AID 1628); type: functional
[2] = cytotoxicity in MIN6 insulinoma cells, dose response, cytotoxicity control, cell-based, mouse insulinoma (AID 2122); type: functional;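 further: confirmatory high-throughput counterscreen run to flag cytotoxic compounds; mouse MIN-6 beta cells carrying an insulin promoter eGFP reporter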
[3] = target: T1, Microphthalmia-associated transcription factor (Homo sapiens, UniProt O75030); assay: TRPM1 promoter luciferase signal decrease, dose response, MITF inhibitor project, cell-based, SK-MEL-5, cherry-picked, set 3 (AID 493073); type: functional
T1 sequence (O75030 whole entry): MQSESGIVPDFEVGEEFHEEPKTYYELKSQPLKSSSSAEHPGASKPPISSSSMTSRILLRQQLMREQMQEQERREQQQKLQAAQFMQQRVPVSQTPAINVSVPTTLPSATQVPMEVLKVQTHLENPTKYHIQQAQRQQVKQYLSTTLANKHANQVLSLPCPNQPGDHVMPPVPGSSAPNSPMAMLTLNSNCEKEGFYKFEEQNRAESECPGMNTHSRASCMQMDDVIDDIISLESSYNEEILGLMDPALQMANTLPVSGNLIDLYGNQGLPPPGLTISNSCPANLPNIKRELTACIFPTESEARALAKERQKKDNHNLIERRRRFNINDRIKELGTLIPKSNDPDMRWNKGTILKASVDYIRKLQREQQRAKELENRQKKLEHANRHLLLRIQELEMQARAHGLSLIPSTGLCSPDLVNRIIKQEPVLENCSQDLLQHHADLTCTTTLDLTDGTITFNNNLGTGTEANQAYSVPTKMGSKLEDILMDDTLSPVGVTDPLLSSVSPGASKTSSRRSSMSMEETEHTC

[4] = test system: INS1; assay: beta cell apoptosis inhibitors, cytokine rescue, dose response, luminescence, retest (AID 449756); type: functional, cell-based; settings: Rattus norvegicus;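 further: cell death triggered by IL-1 beta plus TNF-alpha plus IFN-gamma mixture; protective hits raise ATP signal compared with cytokine alone wells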
[5] = test system: Streptococcus sp. 'group A'; assay: growth inhibition of control SK(-) GAS strain, dose response, counter-screen for streptokinase expression inhibitor project, luminescence, kanamycin, BacTiterGlo, confirmation (AID 1900); type: functional, organism-based
[6] = test system: Streptococcus; assay: Group A Streptococcus viability loss, dose response, counter-screen for streptokinase expression inhibitor project, luminescence, BacTiterGlo (AID 1915); type: functional, organism-based;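 further: potency for reduction of bacterial viability or growth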
[7] = test system: Vero; assay: cells; type: functional, cell-based; settings: Chlorocebus sabaeus
[8] = test system: Vero; assay: cells; type: functional; settings: Chlorocebus sabaeus
[9] = target: Cytochrome P450 2C19 (Homo sapiens, UniProt P33261); assay: Cytochrome panel assay with activity outcomes. Panel member name: p450-cyp2c19 Compounds with AC50 equal or less than 10 uM are considered active; type: functional
[10] = target: T2, Cytochrome P450 3A4 (Homo sapiens, UniProt P08684);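 further: CYP3A4 tested as one member of a cytochrome P450 panel screen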
[11] = target: T3, Cytochrome P450 2C9 (Homo sapiens, UniProt P11712)
[12] = test system: HeLa; assay: HeLa cell cytotoxicity, dose response, cytotoxicity control for MITF activator project, CellTiter-Glo luminescence, cherry-pick samples (AID 540259); type: functional, cell-based; settings: Homo sapiens
[13] = target: T2, Cytochrome P450 3A4; remark: listed apart in the source
[14] = target: T4, Heat shock factor protein 1 (Mus musculus, UniProt P38532); assay: HSF1 potentiators in luciferase reporter cells, confirmation, cell-based, NIH3T3, luminescence, dose retest (AID 435004); type: functional;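 further: stress induced by proteasome inhibitor MG132 added 30 min after compound; luciferase reporter driven by HSF1 response element in NIH3T3 cells; actives raise luminescence as potentiators of the MG132 stress response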
T4 sequence (P38532 whole entry): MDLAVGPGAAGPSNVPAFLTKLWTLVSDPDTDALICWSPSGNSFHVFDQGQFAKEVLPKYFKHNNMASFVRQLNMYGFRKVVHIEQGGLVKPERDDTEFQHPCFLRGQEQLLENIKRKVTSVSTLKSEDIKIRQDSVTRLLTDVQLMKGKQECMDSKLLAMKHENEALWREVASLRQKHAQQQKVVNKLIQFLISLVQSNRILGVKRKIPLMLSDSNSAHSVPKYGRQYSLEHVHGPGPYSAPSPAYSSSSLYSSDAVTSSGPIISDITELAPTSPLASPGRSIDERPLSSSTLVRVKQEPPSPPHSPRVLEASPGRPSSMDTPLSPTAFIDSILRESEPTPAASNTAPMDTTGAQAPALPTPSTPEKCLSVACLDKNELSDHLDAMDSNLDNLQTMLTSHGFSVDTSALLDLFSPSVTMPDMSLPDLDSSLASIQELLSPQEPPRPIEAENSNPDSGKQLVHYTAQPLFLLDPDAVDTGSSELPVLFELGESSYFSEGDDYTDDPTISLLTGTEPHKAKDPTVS

[15] = target: T5, Polyadenylate-binding protein 1 (Homo sapiens, UniProt P11940); assay: PABP1 MLLE–PAM2 interaction inhibitors, dose response, miRNA deadenylation inhibitor project, biochemical, fluorescence polarization, Cy5-PAM2 peptide, secondary (AID 602260); type: functional; settings: read-out: IC50_Mean
[16] = target: T5, Polyadenylate-binding protein 1; assay: PABP1 MLLE–PAM2 binding inhibitor potency, dose response, biochemical, fluorescence polarization, FITC-PAM2 peptide (AID 602259); type: functional; settings: read-out: IC50_Mean
[17] = inhibitors of firefly luciferase expression or activity, dose response, H4 neuroglioma cells, luminescence (AID 1990); type: functional, cell-based
[18] = Luminescence Cell-Based Dose Response HTS to Identify Inhibitors of 5'UTR Stem-Loop Driven Prion Protein mRNA Translation in H4 Neuroglioblastoma Cells. [Related pubchem assays: 1827 (Project Summary), 1813 (Primary HTS)]; type: functional
[19] = inhibitors of SNCA 5'UTR-driven reporter translation, confirmation, H4 neuroglioma cells, luminescence (AID 1988); type: functional, cell-based
[20] = target: Paired box protein Pax-8 (Homo sapiens, UniProt Q06710); assay: inhibitors of PAX8-driven TPO luciferase reporter, dose response, RMG-I cells, cherry-pick (AID 687027); type: functional, cell-based;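 further: luciferase reporter driven by Pax8 target thyroperoxidase promoter measured by SteadyGlo luminescence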
[21] = target: Eukaryotic translation initiation factor 4E (Mus musculus, UniProt P63073); assay: eIF4E–eIF4G protein interaction inhibitors, dose response, biochemical, TR-FRET (AID 855); type: functional;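 further: potency for disrupting eIF4E binding to eIF4GI seen as loss of FRET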
[22] = target: T6, RNA-binding protein pos-1 (Caenorhabditis elegans, UniProt G5EF15); assay: inhibitors of POS-1/mex-3 RNA binding, dose response, biochemical, fluorescence polarization (AID 1964);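 further: purified POS-1 fused to maltose binding protein made in E. coli; potency of compounds blocking POS-1 binding to fluorescent RNA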
T6 sequence (G5EF15 whole entry): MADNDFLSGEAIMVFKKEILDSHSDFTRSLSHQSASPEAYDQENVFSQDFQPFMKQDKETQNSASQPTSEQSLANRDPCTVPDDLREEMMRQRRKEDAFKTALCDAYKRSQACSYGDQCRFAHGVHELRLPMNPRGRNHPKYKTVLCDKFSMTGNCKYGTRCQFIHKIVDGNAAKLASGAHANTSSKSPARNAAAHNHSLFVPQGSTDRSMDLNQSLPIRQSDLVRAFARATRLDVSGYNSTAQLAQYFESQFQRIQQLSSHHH

[23] = target: T7, Zinc finger protein mex-5 (Caenorhabditis elegans, UniProt Q9XUB2); assay: MEX-5/TCR-2 RNA interaction inhibitors, dose response, biochemical, C. elegans, fluorescence polarization (AID 1960)
T7 sequence (Q9XUB2 whole entry): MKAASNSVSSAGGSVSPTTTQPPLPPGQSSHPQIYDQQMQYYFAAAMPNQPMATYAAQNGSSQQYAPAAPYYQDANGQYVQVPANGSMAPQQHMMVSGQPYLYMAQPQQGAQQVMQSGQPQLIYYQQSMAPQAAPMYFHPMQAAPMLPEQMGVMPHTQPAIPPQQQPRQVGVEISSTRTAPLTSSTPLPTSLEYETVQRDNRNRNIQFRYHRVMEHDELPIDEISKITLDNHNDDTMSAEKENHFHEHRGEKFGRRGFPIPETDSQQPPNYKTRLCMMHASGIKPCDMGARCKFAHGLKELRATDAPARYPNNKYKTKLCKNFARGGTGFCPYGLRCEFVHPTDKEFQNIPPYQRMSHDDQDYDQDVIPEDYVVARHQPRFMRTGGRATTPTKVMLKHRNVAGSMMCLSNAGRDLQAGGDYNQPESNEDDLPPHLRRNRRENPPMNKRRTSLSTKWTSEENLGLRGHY

[24] = inhibitors of intracellular T. cruzi replication, confirmation, NIH3T3 host cells, beta-gal luminescence (AID 2044); type: functional, cell-based;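 further: intracellular parasites grown in NIH/3T3 mouse fibroblasts as host cells; luminescent beta-galactosidase reporter signal from transgenic T. cruzi replicating inside host cells; inhibitors lower the luminescence signal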
[25] = growth suppression of PTEN-null colon cells, dose response, cell-based, HCT116 PTEN knockout (AID 1047); type: functional;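 further: HCT116 colon tumor cells with PTEN knocked out; cells exposed to compound for 60 hours before readout; potency for loss of cell viability measured by luminescence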
[26] = target: Prothrombin (Homo sapiens, UniProt P00734); assay: Thrombin 1536 HTS Dose Response Confirmation. [Related pubchem assays: 1046 (Thrombin 1536 HTS; hits were confirmed in this assay)]; type: functional
[27] = cytotoxicity toward NIH3T3 fibroblasts, dose response, counter-screen, cell-based, ATP luminescence, mouse fibroblasts (AID 2010); type: functional;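 further: cells exposed to compound for about 90 hours before reading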
[28] = growth suppression of beta-catenin-knockout colon cells, dose response, cell-based, HCT116, human colon tumor (AID 1045); type: functional;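 further: HCT116 colon tumor cells with beta catenin knocked out; cells exposed to compound for 60 hours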
[29] = target: T3, Cytochrome P450 2C9; remark: listed apart in the source
[30] = target: Cytochrome P450 2D6 (Homo sapiens, UniProt P10635);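 further: CYP2D6 member of a cytochrome P450 panel assay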
Chain of Cytochrome P450 2D6 (P10635 whole entry): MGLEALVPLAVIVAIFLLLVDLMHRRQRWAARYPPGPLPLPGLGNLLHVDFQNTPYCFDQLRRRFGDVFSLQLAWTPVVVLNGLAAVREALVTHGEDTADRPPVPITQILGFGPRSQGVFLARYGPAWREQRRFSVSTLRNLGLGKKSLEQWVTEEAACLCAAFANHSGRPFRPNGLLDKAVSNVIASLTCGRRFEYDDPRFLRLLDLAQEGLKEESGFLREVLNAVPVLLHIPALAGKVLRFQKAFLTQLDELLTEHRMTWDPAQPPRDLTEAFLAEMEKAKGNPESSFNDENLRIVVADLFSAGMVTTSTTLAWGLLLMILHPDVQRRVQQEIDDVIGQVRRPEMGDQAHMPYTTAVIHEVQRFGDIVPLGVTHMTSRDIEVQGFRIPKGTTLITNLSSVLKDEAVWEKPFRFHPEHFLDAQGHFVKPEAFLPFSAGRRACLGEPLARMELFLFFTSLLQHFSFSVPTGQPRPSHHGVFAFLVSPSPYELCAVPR

T2 sequence (P08684 whole entry): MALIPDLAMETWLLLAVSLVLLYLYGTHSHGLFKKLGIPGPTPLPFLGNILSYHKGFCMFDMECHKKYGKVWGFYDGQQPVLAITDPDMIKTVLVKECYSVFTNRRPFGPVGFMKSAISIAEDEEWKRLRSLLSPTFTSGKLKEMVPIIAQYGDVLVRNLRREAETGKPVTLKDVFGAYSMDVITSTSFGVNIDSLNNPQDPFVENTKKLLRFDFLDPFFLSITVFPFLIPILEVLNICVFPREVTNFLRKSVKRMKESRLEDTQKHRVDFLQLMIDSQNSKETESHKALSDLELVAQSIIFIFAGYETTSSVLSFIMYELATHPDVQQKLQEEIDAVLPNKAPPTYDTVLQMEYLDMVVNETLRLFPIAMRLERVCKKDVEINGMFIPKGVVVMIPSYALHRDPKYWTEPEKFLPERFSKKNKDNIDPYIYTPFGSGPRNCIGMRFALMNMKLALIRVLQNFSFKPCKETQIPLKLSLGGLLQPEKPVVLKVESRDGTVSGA
T3 sequence (P11712 whole entry): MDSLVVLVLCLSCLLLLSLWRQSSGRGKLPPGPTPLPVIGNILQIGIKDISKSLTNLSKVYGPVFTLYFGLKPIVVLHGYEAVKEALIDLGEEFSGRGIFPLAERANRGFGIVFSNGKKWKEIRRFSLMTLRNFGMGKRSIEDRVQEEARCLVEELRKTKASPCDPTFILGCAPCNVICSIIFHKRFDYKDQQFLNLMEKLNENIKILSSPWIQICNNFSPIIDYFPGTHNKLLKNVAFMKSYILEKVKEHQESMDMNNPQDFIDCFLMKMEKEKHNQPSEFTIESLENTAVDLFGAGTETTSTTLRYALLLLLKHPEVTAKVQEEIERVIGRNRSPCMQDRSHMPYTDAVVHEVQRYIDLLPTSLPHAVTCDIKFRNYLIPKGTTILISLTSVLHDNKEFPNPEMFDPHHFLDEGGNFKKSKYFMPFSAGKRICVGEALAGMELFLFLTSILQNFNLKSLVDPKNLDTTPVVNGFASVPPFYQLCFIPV
T5 sequence (P11940 whole entry): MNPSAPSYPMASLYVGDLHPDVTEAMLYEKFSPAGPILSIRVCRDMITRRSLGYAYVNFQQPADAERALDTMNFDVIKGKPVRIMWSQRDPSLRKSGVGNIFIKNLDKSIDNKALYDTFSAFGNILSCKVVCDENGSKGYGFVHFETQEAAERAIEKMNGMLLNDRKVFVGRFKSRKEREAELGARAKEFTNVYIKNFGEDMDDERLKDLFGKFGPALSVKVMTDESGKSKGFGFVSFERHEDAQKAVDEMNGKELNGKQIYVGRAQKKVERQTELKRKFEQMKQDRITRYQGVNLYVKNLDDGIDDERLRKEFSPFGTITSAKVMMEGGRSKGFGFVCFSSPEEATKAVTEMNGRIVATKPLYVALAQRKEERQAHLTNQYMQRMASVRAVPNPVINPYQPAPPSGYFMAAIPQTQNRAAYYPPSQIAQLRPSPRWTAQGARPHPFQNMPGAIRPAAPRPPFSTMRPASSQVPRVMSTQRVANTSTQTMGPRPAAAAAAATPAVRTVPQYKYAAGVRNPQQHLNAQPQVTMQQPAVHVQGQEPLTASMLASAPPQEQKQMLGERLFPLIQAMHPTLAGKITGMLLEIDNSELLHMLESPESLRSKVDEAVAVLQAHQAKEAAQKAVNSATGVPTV
Chain of Cytochrome P450 2C19 (P33261 whole entry): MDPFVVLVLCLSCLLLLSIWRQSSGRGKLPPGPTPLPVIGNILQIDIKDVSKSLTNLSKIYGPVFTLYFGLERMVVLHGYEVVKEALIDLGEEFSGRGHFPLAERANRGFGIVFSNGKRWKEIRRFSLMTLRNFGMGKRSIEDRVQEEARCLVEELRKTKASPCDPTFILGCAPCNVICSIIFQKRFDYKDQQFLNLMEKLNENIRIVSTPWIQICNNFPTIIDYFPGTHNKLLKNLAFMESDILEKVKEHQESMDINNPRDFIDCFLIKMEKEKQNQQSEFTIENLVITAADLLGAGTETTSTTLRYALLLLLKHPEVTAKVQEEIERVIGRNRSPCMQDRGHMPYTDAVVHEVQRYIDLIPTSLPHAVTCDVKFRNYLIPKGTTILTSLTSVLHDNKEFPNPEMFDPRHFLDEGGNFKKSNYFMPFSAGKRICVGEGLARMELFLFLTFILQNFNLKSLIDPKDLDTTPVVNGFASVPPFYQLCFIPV
Chain of Eukaryotic translation initiation factor 4E (P63073 whole entry, the tested form may be a part): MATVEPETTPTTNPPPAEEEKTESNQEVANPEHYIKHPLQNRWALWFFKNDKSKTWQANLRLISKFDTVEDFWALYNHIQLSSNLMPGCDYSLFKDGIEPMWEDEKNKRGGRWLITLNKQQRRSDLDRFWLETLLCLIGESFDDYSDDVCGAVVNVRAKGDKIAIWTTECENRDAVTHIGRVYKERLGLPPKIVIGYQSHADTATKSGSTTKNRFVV
Chain of Paired box protein Pax-8 (Q06710 whole entry): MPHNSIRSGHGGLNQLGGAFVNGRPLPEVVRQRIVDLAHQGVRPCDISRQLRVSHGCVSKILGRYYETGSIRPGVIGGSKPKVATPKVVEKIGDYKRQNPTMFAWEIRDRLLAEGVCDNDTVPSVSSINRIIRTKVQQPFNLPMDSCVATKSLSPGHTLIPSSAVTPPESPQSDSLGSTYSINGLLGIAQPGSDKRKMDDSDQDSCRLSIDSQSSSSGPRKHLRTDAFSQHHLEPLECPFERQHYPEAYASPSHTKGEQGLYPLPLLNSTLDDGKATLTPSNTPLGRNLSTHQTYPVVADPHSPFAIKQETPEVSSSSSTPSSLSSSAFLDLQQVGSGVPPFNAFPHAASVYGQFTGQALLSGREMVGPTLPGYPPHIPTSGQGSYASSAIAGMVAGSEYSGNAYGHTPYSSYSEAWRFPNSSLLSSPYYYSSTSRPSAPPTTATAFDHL

SMILES: O=[N+]([O-])c1cccc2c(N3CCCC3)ccnc12
- IC50 [1]: 2.41 µM (active)
- IC50 [2]: 1.18 µM (active)
- AC50 [3]: 2.47 µM (active)
- AC50 [4]: 3.17 µM (active)

SMILES: COc1ccc(CC(=O)NC(=S)NNC(=O)COc2c(C)cccc2C)cc1
- EC50 [5]: 0.124 µM (active)
- EC50 [6]: 6.88 µM (active)
- IC50 [7]: 11.4 µM (active)
- CC50 [8]: > 25 µM (active)

SMILES: CC(C)(C)c1ccc(OCC(=O)NNC(=O)CCc2ccccc2)cc1
- AC50 [9]: 14.1 µM (inconclusive)
- AC50 [10]: inconclusive
- AC50 [11]: inconclusive

SMILES: Cc1cc2ncc(-c3ccc(Cl)cc3)c(N)n2n1
- AC50 [12]: 68.3 µM (active)

SMILES: CC(O)(CS(=O)(=O)c1cccc(C(F)(F)F)c1)C(=O)Nc1cccc(C(F)(F)F)c1 (stereo not drawn)
- AC50 [11]: inconclusive

SMILES: CCC1Oc2ccccc2N(CC(=O)NCCCN2CCCCC2C)C1=O (stereo not drawn)
- AC50 [9]: 2.24 µM (inconclusive)
- AC50 [13]: 20 µM (inconclusive)
- AC50 [11]: inconclusive

SMILES: CCN(CC)S(=O)(=O)c1ccc(C)c(NC(S)=Nc2cccc(S(=O)(=O)N3CCCCCC3)c2)c1
- EC50 [14]: > 260 µM (inactive)
- IC50 [7]: > 25 µM (active)
- CC50 [8]: 18.7 µM (active)
- IC50 [15]: > 66 µM (inactive)
- IC50 [16]: > 66 µM (inactive)

SMILES: CC1=CC(C)(C)N2C(=O)C3(NCCc4c3[nH]c3ccccc43)c3cc(C)cc1c32 (stereo not drawn)
- EC50 [17]: 12.2 µM (active)
- EC50 [18]: > 120 µM (not active)
- EC50 [19]: > 120 µM (not active)
- IC50 [7]: 22.7 µM (active)
- CC50 [8]: > 25 µM (active)
- AC50 [20]: 7.27 µM (active)

SMILES: COC(=O)n1c(=S)oc2cc(Cl)ccc21
- IC50 [21]: > 64 µM (inactive)

SMILES: COc1ccc(-n2nc(C(=O)c3cccs3)cc(-c3nc4ccccc4[nH]3)c2=N)cc1
- EC50 [22]: 53.8 µM (active)
- EC50 [5]: 3.26 µM (active)
- EC50 [23]: 66.3 µM (active)
- EC50 [24]: 0.531 µM (active)
- EC50 [25]: 14.6 µM (active)
- IC50 [26]: > 50 µM (not active)
- EC50 [27]: > 60 µM (not active)
- EC50 [28]: 11.2 µM (active)
- EC50 [6]: 10 µM (active)

SMILES: COc1ccc(/C=N/n2cnc3c4cc(Br)ccc4nc-3c2O)cc1CN1CCOCC1
- IC50 [21]: > 64 µM (inactive)
- AC50 [29]: 3.55 µM (inconclusive)

SMILES: Cc1cc(O)c(C(=O)/C=C/c2ccc(Cl)cc2)c(=O)o1
- IC50 [7]: > 25 µM (active)
- CC50 [8]: 17.6 µM (active)

SMILES: CCCSc1ccc(C(=O)Nc2ccc(F)cc2F)cn1
- AC50 [12]: 88.6 µM (active)

SMILES: CCCC(=O)Nc1ccc(C(=O)Nc2cc(C(F)(F)F)ccc2Cl)cc1
- AC50 [30]: 8.91 µM (inconclusive)
- AC50 [13]: 15.8 µM (inconclusive)
- AC50 [11]: inconclusive

SMILES: c1ccc2oc(CCc3nc4ccccc4o3)nc2c1
- EC50 [22]: > 300 µM (not active)
- EC50 [23]: > 300 µM (not active)
- AC50 [12]: 56.3 µM (active)
